Reference: the kinase profiling compilation of Christmann-Franck et al. (2016)
Blank lines part the entries; values can stand above or below the molecule they belong to.

Tests used:
Experiment in all cases: KINOMEscan competition binding
Conditions in all cases: compound 10.0 µM
[1] = system: ABL1 (human), P00519 [E255K]
[2] = system: ABL1 (human), P00519 [F317I]
[3] = system: ABL1 (human), P00519 [F317L]
[4] = system: ABL1 (human), P00519 [Q252H]
ACVR1B (human) = ACVR1B (human) (UniProt P36896)
ADCK3 (human) = ADCK3 (human) (UniProt Q8NI60)
ADCK4 (human) = ADCK4 (human) (UniProt Q96D53)
AXL (human) = AXL (human) (UniProt P30530)
BMPR2 (human) = BMPR2 (human) (UniProt Q13873)
CAMK4 (human) = CAMK4 (human) (UniProt Q16566)
CDK11A (human) = CDK11A (human) (UniProt Q9UQ88)
CDK3 (human) = CDK3 (human) (UniProt Q00526)
CHEK2 (human) = CHEK2 (human) (UniProt O96017)
EPHB3 (human) = EPHB3 (human) (UniProt P54753)
FGFR1 (human) = FGFR1 (human) (UniProt P11362)
FYN (human) = FYN (human) (UniProt P06241)
INSR (human) = INSR (human) (UniProt P06213)
IRAK3 (human) = IRAK3 (human) (UniProt Q9Y616)
LCK (human) = LCK (human) (UniProt P06239)
LIMK1 (human) = LIMK1 (human) (UniProt P53667)
MAP2K6 (human) = MAP2K6 (human) (UniProt P52564)
MAPK1 (human) = MAPK1 (human) (UniProt P28482)
MAPK10 (human) = MAPK10 (human) (UniProt P53779)
MAPK12 (human) = MAPK12 (human) (UniProt P53778)
MAPK3 (human) = MAPK3 (human) (UniProt P27361)
MAPK6 (human) = MAPK6 (human) (UniProt Q16659)
MARK1 (human) = MARK1 (human) (UniProt Q9P0L2)
MARK3 (human) = MARK3 (human) (UniProt P27448)
MYO3B (human) = MYO3B (human) (UniProt Q8WXR4)
NEK7 (human) = NEK7 (human) (UniProt Q8TDX7)
NTRK1 (human) = NTRK1 (human) (UniProt P04629)
PAK3 (human) = PAK3 (human) (UniProt O75914)
PIK3CB (human) = PIK3CB (human) (UniProt P42338)
PLK1 (human) = PLK1 (human) (UniProt P53350)
PRKACB (human) = PRKACB (human) (UniProt P22694)
PRKG1 (human) = PRKG1 (human) (UniProt Q13976)
PTK6 (human) = PTK6 (human) (UniProt Q13882)
RET (human) = RET (human) (UniProt P07949)
RIPK1 (human) = RIPK1 (human) (UniProt Q13546)
TNNI3K (human) = TNNI3K (human) (UniProt Q59H18)
TSSK1B (human) = TSSK1B (human) (UniProt Q9BXA7)
TXK (human) = TXK (human) (UniProt P42681)
ZAP70 (human) = ZAP70 (human) (UniProt P43403)
ZAP70 (human), sequence (P43403 whole entry, looked up): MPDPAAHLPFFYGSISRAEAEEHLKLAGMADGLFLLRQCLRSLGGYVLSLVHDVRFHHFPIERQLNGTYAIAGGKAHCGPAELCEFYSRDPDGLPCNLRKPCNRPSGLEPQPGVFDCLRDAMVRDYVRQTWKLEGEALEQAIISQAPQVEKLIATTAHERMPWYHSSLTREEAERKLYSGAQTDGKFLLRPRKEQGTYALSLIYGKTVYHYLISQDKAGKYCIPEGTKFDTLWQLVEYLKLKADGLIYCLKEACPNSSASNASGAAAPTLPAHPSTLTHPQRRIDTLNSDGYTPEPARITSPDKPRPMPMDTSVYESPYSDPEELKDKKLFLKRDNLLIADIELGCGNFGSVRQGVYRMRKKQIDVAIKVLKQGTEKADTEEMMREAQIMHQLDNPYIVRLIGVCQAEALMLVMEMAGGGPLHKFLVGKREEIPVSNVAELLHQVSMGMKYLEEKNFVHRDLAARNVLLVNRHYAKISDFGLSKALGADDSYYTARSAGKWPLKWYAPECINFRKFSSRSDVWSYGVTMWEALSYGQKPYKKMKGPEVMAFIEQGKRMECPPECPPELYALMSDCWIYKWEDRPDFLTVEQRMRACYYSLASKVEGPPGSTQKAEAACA

CDK11A (human), sequence (Q9UQ88 whole entry, looked up): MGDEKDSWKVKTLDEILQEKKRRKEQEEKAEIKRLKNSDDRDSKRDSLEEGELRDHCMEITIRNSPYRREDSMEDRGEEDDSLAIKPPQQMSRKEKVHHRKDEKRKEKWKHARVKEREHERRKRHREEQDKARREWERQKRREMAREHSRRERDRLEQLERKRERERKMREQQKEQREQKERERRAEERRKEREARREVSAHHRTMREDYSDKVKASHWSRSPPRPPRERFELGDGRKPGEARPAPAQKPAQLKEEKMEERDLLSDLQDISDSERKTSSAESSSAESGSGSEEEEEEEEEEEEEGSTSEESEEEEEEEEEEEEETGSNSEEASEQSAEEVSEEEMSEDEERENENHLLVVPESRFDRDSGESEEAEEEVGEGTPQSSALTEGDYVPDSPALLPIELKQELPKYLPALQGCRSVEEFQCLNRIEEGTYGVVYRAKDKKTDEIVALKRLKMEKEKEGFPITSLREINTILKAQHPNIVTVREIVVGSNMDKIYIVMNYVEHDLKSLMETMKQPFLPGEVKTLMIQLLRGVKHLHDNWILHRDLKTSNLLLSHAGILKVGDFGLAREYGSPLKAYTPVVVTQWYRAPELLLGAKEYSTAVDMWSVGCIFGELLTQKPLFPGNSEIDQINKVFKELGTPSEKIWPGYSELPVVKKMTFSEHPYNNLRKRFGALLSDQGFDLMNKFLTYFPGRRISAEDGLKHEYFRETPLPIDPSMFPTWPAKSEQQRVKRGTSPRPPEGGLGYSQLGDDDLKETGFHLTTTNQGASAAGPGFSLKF
CHEK2 (human), sequence (O96017 whole entry, looked up): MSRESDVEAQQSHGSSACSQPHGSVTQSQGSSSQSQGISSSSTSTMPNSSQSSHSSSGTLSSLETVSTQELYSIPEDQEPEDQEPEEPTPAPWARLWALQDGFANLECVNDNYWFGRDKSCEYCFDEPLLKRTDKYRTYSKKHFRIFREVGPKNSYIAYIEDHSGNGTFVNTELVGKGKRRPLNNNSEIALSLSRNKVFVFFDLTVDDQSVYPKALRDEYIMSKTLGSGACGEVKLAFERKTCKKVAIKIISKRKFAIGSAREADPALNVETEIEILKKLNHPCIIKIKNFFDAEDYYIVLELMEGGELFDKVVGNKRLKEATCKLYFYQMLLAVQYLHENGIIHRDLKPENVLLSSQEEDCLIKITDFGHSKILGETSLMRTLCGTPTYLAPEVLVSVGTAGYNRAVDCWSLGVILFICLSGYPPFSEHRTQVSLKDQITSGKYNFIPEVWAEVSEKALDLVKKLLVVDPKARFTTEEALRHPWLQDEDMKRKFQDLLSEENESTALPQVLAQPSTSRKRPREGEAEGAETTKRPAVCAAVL
MYO3B (human), sequence (Q8WXR4 whole entry, looked up): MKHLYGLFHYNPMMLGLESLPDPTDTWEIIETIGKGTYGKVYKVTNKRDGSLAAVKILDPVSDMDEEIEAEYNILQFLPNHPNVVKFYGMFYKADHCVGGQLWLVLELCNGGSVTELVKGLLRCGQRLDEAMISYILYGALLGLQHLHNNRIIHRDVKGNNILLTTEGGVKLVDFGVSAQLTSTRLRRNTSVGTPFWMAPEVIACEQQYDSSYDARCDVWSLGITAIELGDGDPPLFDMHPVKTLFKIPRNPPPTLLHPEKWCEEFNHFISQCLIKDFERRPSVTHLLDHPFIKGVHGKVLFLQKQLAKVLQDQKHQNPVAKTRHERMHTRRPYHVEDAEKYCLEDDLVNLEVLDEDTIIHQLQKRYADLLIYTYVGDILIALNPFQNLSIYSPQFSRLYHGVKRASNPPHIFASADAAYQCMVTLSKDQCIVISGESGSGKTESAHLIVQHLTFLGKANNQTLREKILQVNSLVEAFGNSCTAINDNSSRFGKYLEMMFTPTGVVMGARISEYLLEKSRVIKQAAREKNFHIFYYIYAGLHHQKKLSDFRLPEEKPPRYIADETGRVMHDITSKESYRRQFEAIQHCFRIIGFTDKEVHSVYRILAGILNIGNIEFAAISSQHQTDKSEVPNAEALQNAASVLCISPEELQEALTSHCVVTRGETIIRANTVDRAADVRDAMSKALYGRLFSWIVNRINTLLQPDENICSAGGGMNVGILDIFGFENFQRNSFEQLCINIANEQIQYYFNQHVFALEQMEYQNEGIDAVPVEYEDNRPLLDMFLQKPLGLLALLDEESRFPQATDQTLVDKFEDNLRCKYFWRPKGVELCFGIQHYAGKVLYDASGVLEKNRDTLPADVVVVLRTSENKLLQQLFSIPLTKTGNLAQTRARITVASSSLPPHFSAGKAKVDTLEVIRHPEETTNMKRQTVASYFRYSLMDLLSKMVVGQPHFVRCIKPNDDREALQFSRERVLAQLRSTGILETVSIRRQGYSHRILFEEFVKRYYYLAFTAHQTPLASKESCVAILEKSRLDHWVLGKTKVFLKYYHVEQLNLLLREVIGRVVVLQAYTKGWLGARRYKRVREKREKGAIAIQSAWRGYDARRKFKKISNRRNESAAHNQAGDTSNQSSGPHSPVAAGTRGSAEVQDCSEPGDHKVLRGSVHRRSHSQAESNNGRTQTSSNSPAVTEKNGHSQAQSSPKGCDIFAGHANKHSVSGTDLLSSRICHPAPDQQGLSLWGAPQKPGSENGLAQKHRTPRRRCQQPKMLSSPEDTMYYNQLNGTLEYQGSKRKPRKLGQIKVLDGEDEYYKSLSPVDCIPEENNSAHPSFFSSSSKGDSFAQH
BMPR2 (human), sequence (Q13873 whole entry, looked up): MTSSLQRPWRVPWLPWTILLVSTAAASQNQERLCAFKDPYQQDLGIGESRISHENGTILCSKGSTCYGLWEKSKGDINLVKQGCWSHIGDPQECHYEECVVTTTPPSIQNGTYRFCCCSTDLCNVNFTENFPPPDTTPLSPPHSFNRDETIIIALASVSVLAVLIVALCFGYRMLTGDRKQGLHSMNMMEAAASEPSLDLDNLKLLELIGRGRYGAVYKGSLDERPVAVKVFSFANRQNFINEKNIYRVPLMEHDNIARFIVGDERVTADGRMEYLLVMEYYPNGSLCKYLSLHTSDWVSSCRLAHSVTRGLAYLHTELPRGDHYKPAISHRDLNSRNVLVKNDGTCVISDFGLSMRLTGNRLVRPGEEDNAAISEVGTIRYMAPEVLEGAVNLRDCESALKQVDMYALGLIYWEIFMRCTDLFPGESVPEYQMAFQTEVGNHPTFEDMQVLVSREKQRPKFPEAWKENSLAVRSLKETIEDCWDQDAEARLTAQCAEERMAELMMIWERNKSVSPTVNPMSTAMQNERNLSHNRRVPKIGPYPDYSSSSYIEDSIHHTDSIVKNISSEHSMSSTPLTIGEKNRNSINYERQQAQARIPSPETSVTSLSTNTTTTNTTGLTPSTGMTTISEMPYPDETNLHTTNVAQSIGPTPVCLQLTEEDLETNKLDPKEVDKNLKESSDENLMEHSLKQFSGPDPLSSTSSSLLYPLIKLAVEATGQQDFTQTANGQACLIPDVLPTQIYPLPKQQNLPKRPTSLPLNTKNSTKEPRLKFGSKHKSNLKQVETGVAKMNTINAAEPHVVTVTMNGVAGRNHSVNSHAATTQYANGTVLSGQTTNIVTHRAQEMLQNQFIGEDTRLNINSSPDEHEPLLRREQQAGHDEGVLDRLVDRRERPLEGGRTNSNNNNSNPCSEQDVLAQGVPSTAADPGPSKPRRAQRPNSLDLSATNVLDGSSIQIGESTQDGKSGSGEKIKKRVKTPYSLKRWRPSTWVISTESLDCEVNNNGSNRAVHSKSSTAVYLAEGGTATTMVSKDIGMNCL
MAPK1 (human), sequence (P28482 whole entry, looked up): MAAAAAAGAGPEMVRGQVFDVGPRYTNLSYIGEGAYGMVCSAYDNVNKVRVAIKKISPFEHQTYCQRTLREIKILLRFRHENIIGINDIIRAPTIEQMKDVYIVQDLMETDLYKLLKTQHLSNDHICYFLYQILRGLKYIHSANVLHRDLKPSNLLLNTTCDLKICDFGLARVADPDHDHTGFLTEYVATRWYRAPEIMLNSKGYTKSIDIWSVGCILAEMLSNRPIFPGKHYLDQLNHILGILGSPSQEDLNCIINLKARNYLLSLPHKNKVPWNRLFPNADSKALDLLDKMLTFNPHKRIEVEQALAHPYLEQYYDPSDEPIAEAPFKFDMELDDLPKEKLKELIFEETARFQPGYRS
MAP2K6 (human), sequence (P52564 whole entry, looked up): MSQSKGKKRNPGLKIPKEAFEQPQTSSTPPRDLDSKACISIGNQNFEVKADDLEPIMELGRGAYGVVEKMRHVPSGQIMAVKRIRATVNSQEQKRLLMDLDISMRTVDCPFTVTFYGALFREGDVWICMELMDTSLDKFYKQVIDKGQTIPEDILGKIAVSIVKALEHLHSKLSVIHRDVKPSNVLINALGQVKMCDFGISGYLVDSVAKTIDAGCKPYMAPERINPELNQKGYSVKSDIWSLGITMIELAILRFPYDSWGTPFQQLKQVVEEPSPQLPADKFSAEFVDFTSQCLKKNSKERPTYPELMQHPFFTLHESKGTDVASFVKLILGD

kinase still bound, per cent of control (CDK3 (human)): 24%
SMILES: N=C1NC(=O)/C(=C/c2ccc(-c3ccccc3O)o2)S1

kinase still bound, per cent of control (CAMK4 (human)): 25% | kinase still bound, per cent of control (MAPK1 (human)): 29% | kinase still bound, per cent of control (MARK3 (human)): 20% | kinase still bound, per cent of control (NEK7 (human)): 33%
SMILES: N=C1NC(=O)/C(=C/c2ccc(-c3csc4ccccc34)o2)S1

kinase still bound, per cent of control (CDK11A (human)): 0.45% | kinase still bound, per cent of control (CHEK2 (human)): 33% | kinase still bound, per cent of control (IRAK3 (human)): 11% | kinase still bound, per cent of control (MAPK10 (human)): 3% | kinase still bound, per cent of control (NEK7 (human)): 15% | kinase still bound, per cent of control (TXK (human)): 13%
SMILES: N=C1NC(=O)/C(=C/c2ccc(-c3cncc4ccccc34)o2)S1

kinase still bound, per cent of control (CDK3 (human)): 30% | kinase still bound, per cent of control (ZAP70 (human)): 25%
SMILES: N=C1NC(=O)/C(=C/c2ccc(-c3ccc(C(N)=O)cc3O)o2)S1

kinase still bound, per cent of control (CDK3 (human)): 6.5%
SMILES: N=C1NC(=O)/C(=C/c2ccc(-c3ccc(F)cc3O)o2)S1

Further lines, the molecule ahead of its results:

SMILES: CN1CCN(c2ccc(C(=O)Nc3ncc4c(n3)N(C)c3ccccc3C(=O)N4C)cc2)CC1
kinase still bound, per cent of control [1]: 100% | kinase still bound, per cent of control [2]: 96% | kinase still bound, per cent of control [3]: 83% | kinase still bound, per cent of control [4]: 100% | kinase still bound, per cent of control (ACVR1B (human)): 100% | kinase still bound, per cent of control (ADCK3 (human)): 100% | kinase still bound, per cent of control (ADCK4 (human)): 100% | kinase still bound, per cent of control (AXL (human)): 100% | kinase still bound, per cent of control (BMPR2 (human)): 100% | kinase still bound, per cent of control (CAMK4 (human)): 100% | kinase still bound, per cent of control (CDK11A (human)): 100% | kinase still bound, per cent of control (CDK3 (human)): 100% | kinase still bound, per cent of control (CHEK2 (human)): 100% | kinase still bound, per cent of control (EPHB3 (human)): 100% | kinase still bound, per cent of control (FGFR1 (human)): 100% | kinase still bound, per cent of control (FYN (human)): 95% | kinase still bound, per cent of control (INSR (human)): 100% | kinase still bound, per cent of control (IRAK3 (human)): 92% | kinase still bound, per cent of control (LCK (human)): 100% | kinase still bound, per cent of control (LIMK1 (human)): 100% | kinase still bound, per cent of control (MAP2K6 (human)): 100% | kinase still bound, per cent of control (MAPK1 (human)): 100% | kinase still bound, per cent of control (MAPK10 (human)): 93% | kinase still bound, per cent of control (MAPK12 (human)): 98% | kinase still bound, per cent of control (MAPK3 (human)): 100% | kinase still bound, per cent of control (MAPK6 (human)): 70% | kinase still bound, per cent of control (MARK1 (human)): 96% | kinase still bound, per cent of control (MARK3 (human)): 100% | kinase still bound, per cent of control (MYO3B (human)): 93% | kinase still bound, per cent of control (NEK7 (human)): 100% | kinase still bound, per cent of control (NTRK1 (human)): 82% | kinase still bound, per cent of control (PAK3 (human)): 79% | kinase still bound, per cent of control (PIK3CB (human)): 100% | kinase still bound, per cent of control (PLK1 (human)): 100% | kinase still bound, per cent of control (PRKACB (human)): 100% | kinase still bound, per cent of control (PRKG1 (human)): 100% | kinase still bound, per cent of control (PTK6 (human)): 100% | kinase still bound, per cent of control (RET (human)): 100% | kinase still bound, per cent of control (RIPK1 (human)): 100% | kinase still bound, per cent of control (TNNI3K (human)): 100% | kinase still bound, per cent of control (TSSK1B (human)): 100% | kinase still bound, per cent of control (TXK (human)): 100% | kinase still bound, per cent of control (ZAP70 (human)): 100%

SMILES: COc1cc(N2CCN(C)CC2)ccc1Nc1ncc2c(n1)N(C)c1ccccc1N(C)C2=O
kinase still bound, per cent of control [1]: 100% | kinase still bound, per cent of control [2]: 67% | kinase still bound, per cent of control [3]: 45% | kinase still bound, per cent of control [4]: 100% | kinase still bound, per cent of control (ACVR1B (human)): 100% | kinase still bound, per cent of control (ADCK3 (human)): 85% | kinase still bound, per cent of control (ADCK4 (human)): 82% | kinase still bound, per cent of control (AXL (human)): 95% | kinase still bound, per cent of control (BMPR2 (human)): 100% | kinase still bound, per cent of control (CAMK4 (human)): 100% | kinase still bound, per cent of control (CDK11A (human)): 80% | kinase still bound, per cent of control (CDK3 (human)): 96% | kinase still bound, per cent of control (CHEK2 (human)): 97% | kinase still bound, per cent of control (EPHB3 (human)): 100% | kinase still bound, per cent of control (FGFR1 (human)): 100% | kinase still bound, per cent of control (FYN (human)): 100% | kinase still bound, per cent of control (INSR (human)): 52% | kinase still bound, per cent of control (IRAK3 (human)): 82% | kinase still bound, per cent of control (LCK (human)): 100% | kinase still bound, per cent of control (LIMK1 (human)): 95% | kinase still bound, per cent of control (MAP2K6 (human)): 65% | kinase still bound, per cent of control (MAPK1 (human)): 100% | kinase still bound, per cent of control (MAPK10 (human)): 85% | kinase still bound, per cent of control (MAPK12 (human)): 78% | kinase still bound, per cent of control (MAPK3 (human)): 100% | kinase still bound, per cent of control (MAPK6 (human)): 100% | kinase still bound, per cent of control (MARK1 (human)): 86% | kinase still bound, per cent of control (MARK3 (human)): 98% | kinase still bound, per cent of control (MYO3B (human)): 89% | kinase still bound, per cent of control (NEK7 (human)): 81% | kinase still bound, per cent of control (NTRK1 (human)): 76% | kinase still bound, per cent of control (PAK3 (human)): 93% | kinase still bound, per cent of control (PIK3CB (human)): 83% | kinase still bound, per cent of control (PLK1 (human)): 100% | kinase still bound, per cent of control (PRKACB (human)): 100% | kinase still bound, per cent of control (PRKG1 (human)): 100% | kinase still bound, per cent of control (PTK6 (human)): 32% | kinase still bound, per cent of control (RET (human)): 100% | kinase still bound, per cent of control (RIPK1 (human)): 100% | kinase still bound, per cent of control (TNNI3K (human)): 100% | kinase still bound, per cent of control (TSSK1B (human)): 53% | kinase still bound, per cent of control (TXK (human)): 100% | kinase still bound, per cent of control (ZAP70 (human)): 100%

SMILES: CS(=O)(=O)Nc1ccc(-c2ncc(/C=C3\SC(=N)NC3=O)s2)cc1
kinase still bound, per cent of control [4]: 28% | kinase still bound, per cent of control (RET (human)): 20%

SMILES: N=C1NC(=O)/C(=C/c2c[nH]c(=O)c(-c3ccc(N4CCNCC4)nc3)c2)S1
kinase still bound, per cent of control (TSSK1B (human)): 9.8%

SMILES: O=C1NC(=S)S/C1=C\c1ccc(-c2cncc3ccccc23)o1
kinase still bound, per cent of control (ACVR1B (human)): 32% | kinase still bound, per cent of control (CDK11A (human)): 2% | kinase still bound, per cent of control (CHEK2 (human)): 14% | kinase still bound, per cent of control (IRAK3 (human)): 7.9% | kinase still bound, per cent of control (MAP2K6 (human)): 24% | kinase still bound, per cent of control (MAPK10 (human)): 12% | kinase still bound, per cent of control (MYO3B (human)): 26% | kinase still bound, per cent of control (NEK7 (human)): 17%

SMILES: CS(=O)(=O)Nc1ccc(-c2cncc(/C=C3\SC(=N)NC3=O)c2)cc1
kinase still bound, per cent of control (ACVR1B (human)): 29%

SMILES: CN1C(=O)[C@H]2CCC[C@H]2N(C2CCCC2)c2nc(Nc3ccc(C(N)=O)cc3)ncc21
kinase still bound, per cent of control (AXL (human)): 13% | kinase still bound, per cent of control (BMPR2 (human)): 23% | kinase still bound, per cent of control (PLK1 (human)): 0.65%

SMILES: CSC1=NC(=O)/C(=C/c2c[nH]c(=O)c(-c3ccc(NS(C)(=O)=O)cc3)c2)S1
kinase still bound, per cent of control (PLK1 (human)): 17%

SMILES: Nc1cccc(-c2cc(/C=C3\SC(=O)NC3=O)c[nH]c2=O)c1
kinase still bound, per cent of control (BMPR2 (human)): 29% | kinase still bound, per cent of control (PLK1 (human)): 1.8%
